Assay results as given in patent US7205387B2, “Recombinant polypeptide useful for neurotrophin receptor mediated gene delivery and as neurotrophin agonist” (Agency for Science, Technology and Research, priority 2003, dated 2007).
Bridge positions count the residues as written; N and C are the ends. Ends that are not written are not given here.

Experiments:
plasmid DNA [1] = test: DNA retardation assay (agarose gel electrophoresis); type: binding
Description: This assay qualitatively assesses the ability of a polypeptide or polycation to bind to DNA and thus to retard its migration (by decreasing its charge/mass ratio) through an agarose gel under electrophoresis. For a range of N/P ratios, polypeptide was added to 0.1 μg of plasmid DNA made up to 20 μl with either HEPES-buffered saline (HBS, 150 mM NaCl, 29 mM HEPES, pH 7.3) or 5% glucose. The mixtures were vortexed and incubated at room temperature for 30 minutes before being subjected to electrophoresis in a 0.8–1.0% Tris-borate-EDTA agarose gel stained with ethidium bromide for visualization under ultraviolet light.

[2] = test system: PC12 (TrkA and p75^NTR positive) cells; test: Gene delivery in vitro (pCAGluc luciferase reporter), PC12 cells; type: cell-based, rat; details: for dose-response of transfection efficiency with increasing amount of peptide: 1 μg pCAGluc/well, 100 μM chloroquine
Description: A PC12 (rat pheochromocytoma) cell line was obtained from ATCC (American Type Culture Collection, Manassas, Va., USA) and cultured in RPMI-1640 medium supplemented with 10% fetal bovine serum (FBS) and 5% horse serum. PC12 cells are known to express TrkA and p75^NTR receptors. A COS7 (African green monkey kidney fibroblast) cell line was obtained from ATCC and cultured in Dulbecco's modified Eagle's medium (DMEM) supplemented with 10% fetal bovine serum, 50 U/ml penicillin, and 50 μg/ml streptomycin. The cells were maintained in a 37° C., 5% CO2, humidified incubator.
To determine the transfection efficiencies of our nucleic acid delivery systems, we employ a reporter plasmid, pCAGluc (a gift from Yoshiharu Matsuura, National Institute of Infectious Diseases, Tokyo, Japan), encoding firefly luciferase under the control of the composite promoter, CAG. CAG comprises the chicken β-actin promoter and the cytomegalovirus immediate early enhancer.
TrkA-targeting gene delivery complexes were tested for transfection efficiency in vitro in PC12 (TrkA and p75^NTR positive) cells and COS7 (neurotrophin receptor negative) cells. The cells were grown to 50–70% confluency in microplate wells (24-, 48-, or 96-well plates). The gene delivery complexes were prepared according to specifications presented for each example. Transfection was accomplished by replacing the serum-enriched medium with half the usual volume of reduced-serum medium, Opti-MEM (Invitrogen), containing the gene delivery complexes. Where specifically mentioned, 100 μM of chloroquine was also added to help the complexes escape from endosomes. After four hours of incubation, the cells were restored to the normal medium volume and serum concentration, either by topping up with medium containing twice the usual serum concentration (RPMI-1640 with 20% FBS and 10% horse serum for PC12) or by completely replacing the medium.
One to two days after transfection, the cell culture medium was removed and the cells were rinsed in phosphate-buffered saline (PBS). Enough Reporter Lysis Buffer (Promega, Wisconsin, Md., USA) to cover the bottom surface was added to each well (50 μl/well for 48-well plates). After one freeze-thaw cycle, the lysates were tested for luciferase activity using the Luciferase Assay System (Promega) and a single-tube luminometer (Berthold Lumat L B 9507, Bad Wildbad, Germany). The total protein concentration of each lysate was determined using the DC Protein assay (Bio-Rad, Hercules, Calif., USA). The results were expressed in relative light units (RLU) per milligram of total protein.

TrkA = target: T1, TrkA (Rattus norvegicus, UniProt P35739); test: Phospho-TrkA immunoblot in PC12 cells; type: cell-based; details: 5 μM peptide, 20 min
T1 construct: endogenous in cells; host or cells: PC12 (rat pheochromocytoma, ATCC)
Description: (§1) Immunoblotting experiments were conducted to test whether the chimeric polypeptides could, like NGF, induce autophosphorylation of TrkA and activation of its signal transduction pathways. PC12 cells were seeded in 6-well plates at a density of 2×10^6 cells/well and cultured in RPMI 1640 containing 0.5% FBS and 0.25% horse serum for 2 days. The low serum concentrations were necessary to reduce the basal levels of phosphorylation. The medium was refreshed two hours before beginning treatment. The cells were incubated with the polypeptides or NGF in serum-free medium for 15–20 min. The cells were then washed in PBS, lysed, and sonicated. The cell lysates were resolved by SDS-PAGE and transferred to a nitrocellulose membrane for immunoblotting. The primary antibodies used include Phospho-TrkA (Tyr490) antibody, Phospho-p44/p42 MAPK (Thr202/Tyr204) monoclonal antibody, and Phospho-Akt (Ser473) monoclonal antibody, all obtained from Cell Signaling Technology (Beverly, Mass., USA). Colorimetric detection was performed by standard techniques after using horse-radish peroxidase-conjugated secondary antibodies. In some experiments, TrkA tyrosine kinase inhibitors K-252a or AG879 (both from Calbiochem, La Jolla, Calif., USA) were used. In these cases, PC12 cells were incubated with 100 nM K-252a or 10 μM AG879 before addition of polypeptides or NGF.

Erk1 and Erk2 = test: Phospho-Erk1/Erk2 (p44/p42 MAPK) immunoblot in PC12 cells; type: cell-based, rat; details: for effect of TrkA inhibitor pre-treatment on NL4- and NL4-10K-induced phosphorylation of Erk1 and Erk2: 100 nM K-252a or 10 μM AG879, 10 min pre-incubation
Description: as §1

Akt = test: Phospho-Akt immunoblot in PC12 cells; type: cell-based, rat; details: 5 μM peptide, 20 min
Description: as §1

PC12 cells = test: PC12 cell survival assay (MTT, serum-free medium); type: cell-based, rat; details: differentiated PC12, serum and NGF deprived 4 days; 0.125 to 2.5 μM; NGF 10 ng/ml control
Description: Undifferentiated or differentiated (by 6-day treatment with 10 ng/ml NGF) PC12 cells seeded onto collagen-coated 96-well plates were exposed to serum-free RPMI-1640 medium containing either NGF or various concentrations of chimeric polypeptides. After 3–4 days of incubation, cell viability was measured by the standard MTT assay. Cell survival was expressed as a percentage of the viability of the NGF-treated control.

primary cortical neurons = test: Gene delivery to primary cultures of cortical neurons; type: cell-based, rat
Description: Primary cultures of neurons were established from the cortices of embryonic Wistar rats at gestational day 20. Cortices freed of meninges were dissected and individual cells were dispersed mechanically by trituration of minced tissue in 3 ml DMEM medium supplemented with 2% FBS. The suspension was allowed to settle in a centrifuge tube. The cells in the supernatant were collected by centrifugation and resuspended gently in DMEM with 10% FBS. Viability of the cells was assessed prior to plating using trypan blue. Cells were plated onto microplates pre-coated with poly-L-lysine/laminin at a density of 7.5×10^5 viable cells/cm^2. After a two-hour incubation period to allow neurons to attach, the medium and unattached cells were removed and replaced by serum-free DMEM/F12 medium with 1% N2 supplement (Invitrogen, Carlsbad, Calif., USA). The cell were then incubated at 37° C. in 5% CO2 in a humidified incubator. After 2–5 days of culture, the neuron cells were used for transfection experiments. Gene delivery complexes were also tested on primary cultures of cortical neurons and glial cells in a similar fashion. […] Four hours later, an equal volume of DMEM-F12/N2 was added. One to two days after transfection, the cell culture medium was removed and the cells were rinsed in phosphate-buffered saline (PBS). Enough Reporter Lysis Buffer (Promega, Wisconsin, Md., USA) to cover the bottom surface was added to each well (50 μl/well for 48-well plates). After one freeze-thaw cycle, the lysates were tested for luciferase activity using the Luciferase Assay System (Promega) and a single-tube luminometer (Berthold Lumat L B 9507, Bad Wildbad, Germany). The total protein concentration of each lysate was determined using the DC Protein assay (Bio-Rad, Hercules, Calif., USA). The results were expressed in relative light units (RLU) per milligram of total protein.

primary glial cells = test: Gene delivery to primary cultures of glial cells; type: cell-based, rat
Description: Primary cultures of glial cells were established from the cortices of 20-day old embryonic Wistar rats. Individual cells were collected as described above. The cells were plated at a density of 4×10^5 viable cells/cm^2 on poly-L-lysine/laminin coated dishes and grown to confluence for 7 days in DMEM/F12 medium supplemented with 10% FCS. The day before transfection, the cells were detached and plated into coated microplates at a density of 2.5×10^4 cells per well. Gene delivery complexes were also tested on primary cultures of cortical neurons and glial cells in a similar fashion. […] Four hours later, an equal volume of DMEM-F12/N2 was added. One to two days after transfection, the cell culture medium was removed and the cells were rinsed in phosphate-buffered saline (PBS). Enough Reporter Lysis Buffer (Promega, Wisconsin, Md., USA) to cover the bottom surface was added to each well (50 μl/well for 48-well plates). After one freeze-thaw cycle, the lysates were tested for luciferase activity using the Luciferase Assay System (Promega) and a single-tube luminometer (Berthold Lumat L B 9507, Bad Wildbad, Germany). The total protein concentration of each lysate was determined using the DC Protein assay (Bio-Rad, Hercules, Calif., USA). The results were expressed in relative light units (RLU) per milligram of total protein.

plasmid DNA [3] = test: Atomic force microscopy of polypeptide-DNA complexes; type: physicochemical; details: N/P ratio of 10
Description: DNA samples, polypeptide-DNA complexes, and polypeptide-polycation-DNA complexes were prepared with a DNA concentration of 0.02 mg/ml. The samples were diluted ten-fold in HPLC-grade water, and 20 μl of each sample was deposited onto mica discs. After one minute, the mica discs were washed with HPLC-grade water and dried in a stream of filtered air. Images were acquired on a Nanoscope IIIa atomic force microscope (Digital Instruments, Santa Barbara, Calif., USA) operating in tapping mode in air, using Nanoprobe Silicon tips (Digital Instruments).

[4] = 0.25 μg/well pCAGluc, PEI600-based complexes
[5] = pCAGluc/SPKR4BL1-2 without PEI600, 0.25 μg/well

T1 sequence (P35739 33-799): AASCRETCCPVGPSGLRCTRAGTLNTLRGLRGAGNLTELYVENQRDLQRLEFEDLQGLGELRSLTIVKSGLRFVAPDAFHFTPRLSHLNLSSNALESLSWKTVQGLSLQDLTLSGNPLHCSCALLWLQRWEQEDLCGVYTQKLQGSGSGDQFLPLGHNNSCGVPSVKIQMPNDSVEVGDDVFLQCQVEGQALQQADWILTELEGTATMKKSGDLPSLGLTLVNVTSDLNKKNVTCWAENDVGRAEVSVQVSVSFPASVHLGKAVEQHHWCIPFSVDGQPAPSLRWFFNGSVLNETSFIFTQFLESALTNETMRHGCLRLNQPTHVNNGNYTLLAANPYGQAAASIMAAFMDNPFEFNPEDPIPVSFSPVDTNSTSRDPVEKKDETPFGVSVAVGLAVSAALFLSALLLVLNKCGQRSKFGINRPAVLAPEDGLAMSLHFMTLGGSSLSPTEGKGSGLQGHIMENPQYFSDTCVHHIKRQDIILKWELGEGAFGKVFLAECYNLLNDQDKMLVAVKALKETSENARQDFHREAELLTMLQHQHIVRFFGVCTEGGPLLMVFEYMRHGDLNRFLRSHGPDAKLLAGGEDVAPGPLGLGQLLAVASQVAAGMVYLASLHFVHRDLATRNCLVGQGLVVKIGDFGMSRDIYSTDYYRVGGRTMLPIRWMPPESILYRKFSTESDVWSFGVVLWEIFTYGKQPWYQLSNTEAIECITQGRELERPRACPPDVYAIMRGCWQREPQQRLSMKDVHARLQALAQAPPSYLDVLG

NL4: loop 4 of NGF and the flanking β-sheet sequences, amino acids 80–108; targeting domain only (CTTTHTFVKALTMDGKQAAWRFIRIDTAC; disulfide 1-29)
DNA binding / retardation of DNA migration (in words) (plasmid DNA [1]): does not retard DNA migration | dose-response of transfection efficiency with increasing amount of peptide [2]: Neither NL4 (targeting domain only) nor 10K (DNA-binding domain only) nor a mixture of the two exhibited this dose-responsive trend | activation (phosphorylation) of TrkA (TrkA): induced activation | activation (phosphorylation) of Erk 1 and Erk 2 (Erk1 and Erk2; 5 μM peptide, 20 min): induced activation | activation (phosphorylation) of Akt (Akt): induced activation | cell survival rate as % of optimal NGF-promoted survival (PC12 cells): 68–109%

SPKRSPKRSPKRSPKR (artificial sequence SPKR4) [(SPKR)4, reference compound]
transgene expression (in words) (primary cortical neurons; [4]): enhances transgene expression | transgene expression (in words) (primary glial cells; [4]): enhances transgene expression

COC(=O)[C@@]1(O)C[C@H]2O[C@]1(C)n1c3ccccc3c3c4c(c5c6ccccc6n2c5c31)C(=O)NC4 [K-252a, reference compound]
effect of K-252a on Erk phosphorylation induced by 8 μM SPKR4NL1-2 (Erk1 and Erk2; 0, 10, 20, 50 and 100 nM K-252a, 10 min pre-incubation): reduced and eventually eliminated | effect of TrkA inhibitor pre-treatment on NL4- and NL4-10K-induced phosphorylation of Erk1 and Erk2 (Erk1 and Erk2): greatly reduced

KKKKKKKKKK (artificial sequence lysine 10) [10K, ten consecutive lysine residues, reference compound]
dose-response of transfection efficiency with increasing amount of peptide [2]: Neither NL4 (targeting domain only) nor 10K (DNA-binding domain only) nor a mixture of the two exhibited this dose-responsive trend | reduction of efficiency of NL4-10K/pCAGluc gene delivery by excess free competitor ([2]; competitor present during transfection, complexes at N/P ratio of 5, 100 μM chloroquine): did not have a significant effect

NGF: nerve growth factor, neurotrophin; competitor and positive control
effect of added NGF on transfection by (SPKR)4/DNA/PEI600 ([2]; NGF 200 ng/ml): no significant effect | effect of added NGF on transfection by SPKR4NL1-2/DNA/PEI600 ([2]; NGF 200 ng/ml during transfection): greatly reduces the transfection efficiency

CC(C)(C)c1cc(/C=C(\C#N)C(N)=S)cc(C(C)(C)C)c1O [AG879, reference compound]
effect of TrkA inhibitor pre-treatment on NL4- and NL4-10K-induced phosphorylation of Erk1 and Erk2 (Erk1 and Erk2): greatly reduced

B1: SPKR4BL1-2: chimeric protein analogous to SPKR4NL1-2 with loops 1 and 2 of BDNF (aa 22–74) to bind TrkB (protein)
chain: MGHHHHHHHHHHSSGHIEGRHMSPKRSPKRSPKRSPKRGGTYLSEDELKAAEAAFKRHNPTGSCSISEWVTAADKKTAVDMSGGTVTVLEKVPVSKGQLKQYFYETKCNPMGYTKEG
modifications: SPKR4BL1-2
N/P ratio at which plasmid DNA is completely retarded (complex immobile) (plasmid DNA [1]; 0.1 μg plasmid DNA, agarose gel): 2 N/P ratio | peptide/DNA amount equivalent to the N/P ratio of complete retardation (plasmid DNA [1]; N/P ratio of 2): 0.8 nmol/ug DNA | diameter of condensed plasmid DNA particles (plasmid DNA [3]): under 200 nm | increase of transgene expression with increasing SPKR4BL1-2 (primary cortical neurons; PEI600 fixed at N/P ratio of 10, 0.25 μg/well pCAGluc, highest ratio used): up to 500 fold | transgene expression relative to PEI600/DNA (primary glial cells; [5]): 50 times | transgene expression relative to naked DNA (primary glial cells; [5]): 180 times
